According to patent US12403184B2, “Compositions and methods for treating neurodegenerative disroders” (priority 2018, dated 2025):
Where no end group is shown, it is not given here.

Legend:
[1] = target: T1, ATAD3A (Mus musculus, UniProt Q925I1); experiment: ATAD3A dimerization by western blot, Neuro2A cells; type: cell-based; details: Neuro2a cells exposed to 3-NP, non-reducing conditions
T1 construct: endogenous in cells; host or cells: Neuro2A cells
T1 sequence (Q925I1 1-591): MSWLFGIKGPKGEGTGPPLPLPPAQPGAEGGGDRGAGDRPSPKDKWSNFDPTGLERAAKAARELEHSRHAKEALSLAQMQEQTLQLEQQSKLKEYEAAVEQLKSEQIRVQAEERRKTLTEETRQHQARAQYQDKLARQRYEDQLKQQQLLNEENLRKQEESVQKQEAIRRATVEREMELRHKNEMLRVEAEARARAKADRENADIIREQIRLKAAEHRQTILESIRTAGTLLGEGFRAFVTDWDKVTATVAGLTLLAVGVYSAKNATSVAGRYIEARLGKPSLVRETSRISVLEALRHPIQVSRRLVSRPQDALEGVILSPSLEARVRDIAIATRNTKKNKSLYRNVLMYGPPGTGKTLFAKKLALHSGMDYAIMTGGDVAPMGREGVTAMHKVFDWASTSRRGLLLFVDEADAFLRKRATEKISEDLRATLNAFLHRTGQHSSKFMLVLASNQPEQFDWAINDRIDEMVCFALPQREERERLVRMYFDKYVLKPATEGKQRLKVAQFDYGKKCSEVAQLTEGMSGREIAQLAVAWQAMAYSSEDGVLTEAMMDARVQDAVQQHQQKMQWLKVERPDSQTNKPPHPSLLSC
Procedure: To analyze dimerization of ATAD3A under non-reducing conditions, the cells or tissues were harvested and lysed with total lysates buffer. An equal amount of proteins was subject to 8% SDS-PAGE analysis in the presence or absence of β-mercaptoethanol (β-ME). For in vitro BMH crosslinking, the cell lysates were incubated with 1 mM BMH at r.t. for up to 25 min and quenched with 0.1% β-ME, followed by SDS-PAGE analysis. For in-vivo crosslinking, the cells were treated with cell-permeable crosslinker BMH (1 mM) for 20 min at 37° C. After crosslinking, the cells were quenched in PBS with 0.1% β-ME. For DSP crosslinking, the cells were treated with cell-permeable crosslinker for 5 min at 37° C., followed by quenching and washing with 10 mM Glycine in PBS. For formaldehyde (FA) crosslinking, the cells were incubated with PBS buffer containing 1% FA for 20 min at r.t., and the crosslinking reaction was terminated by washing in PBS containing 100 mM glycine. The cells were then lysed and subject to 8% SDS-PAGE analysis. For DTSSP crosslinking of proteins in mitochondrial fractions, isolated mitochondria samples were suspended in the mitochondrial lysis buffer (250 mM sucrose, 20 mM HEPES-NaOH, pH 7.5, 10 mM KCl, 1.5 mM MgCl2, 1 mM EDTA, 1 mM EGTA and protease inhibitor). An equal amount of crude mitochondria was incubated at 30° C. in the presence of 0.5 mM DTSSP. […]

[2] = target: T2, Drp1/ATAD3A (Mus musculus, UniProt Q925I1); experiment: Immunoprecipitation of Drp1/ATAD3A binding in mouse striatal cells; type: cell-based
T2 construct: The total lysates of cells or mouse striatum were subject to IP analysis; endogenous in cells; host or cells: HdhQ7 / HdhQ111 mouse striatal cells; wild-type mouse striatal cells exposed to 3-NP
T2 sequence (Q925I1 2-591 limits assumed): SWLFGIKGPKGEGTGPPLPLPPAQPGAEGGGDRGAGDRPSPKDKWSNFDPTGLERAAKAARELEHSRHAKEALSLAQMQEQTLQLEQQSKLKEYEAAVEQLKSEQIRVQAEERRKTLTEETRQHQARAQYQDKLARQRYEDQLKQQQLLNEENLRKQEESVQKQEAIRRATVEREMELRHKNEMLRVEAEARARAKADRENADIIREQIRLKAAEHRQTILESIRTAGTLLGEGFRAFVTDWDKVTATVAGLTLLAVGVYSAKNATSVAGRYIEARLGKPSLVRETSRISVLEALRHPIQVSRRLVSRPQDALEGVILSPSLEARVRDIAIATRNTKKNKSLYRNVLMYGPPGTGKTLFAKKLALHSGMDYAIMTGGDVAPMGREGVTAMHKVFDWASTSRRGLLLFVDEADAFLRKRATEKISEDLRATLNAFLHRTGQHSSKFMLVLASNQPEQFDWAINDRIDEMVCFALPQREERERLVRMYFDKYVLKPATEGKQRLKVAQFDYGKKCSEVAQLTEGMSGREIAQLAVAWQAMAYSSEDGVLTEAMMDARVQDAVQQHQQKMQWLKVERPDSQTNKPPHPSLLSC
Procedure: Cells and mouse brain tissues were harvested and lysed in total lysis buffer ([…], pH 7.9, […], […], 1% Triton X-100, and protease inhibitor cocktail) for 30 mins on ice and centrifuged at 12,000×g for 10 min at 4° C. The supernatants were incubated with the indicated primary antibodies or control IgG (sc-2025 and sc-2027, Santa Cruz Biotechnology) overnight at 4° C., followed by incubation with protein A/G beads (sc-2003, Santa Cruz Biotechnology) for 2 h at 4° C. The immunoprecipitates were washed with lysis buffer three times for a total of 30 min and then subject to WB analysis.

Compound	ATAD3A dimerization [1]	interaction between Drp1 and ATAD3A ([2]; wildtype mouse striatal cells, 3-NP 5 mM for 4 h)	binding of Drp1/ATAD3A ([2]; HdhQ111 cells, peptide 1 μM/day for 4 days, vs TAT)
O=C(O)CC[N+](=O)[O-] [3-NP, 3-nitropropionic acid, reference compound]	increased	induced	–
YGRKKRRQRRR-GG-EERRKT-NH2 (YGRKKRRQRRRGGEERRKT-NH2) [DA2, peptide from ATAD3A coiled-coil region homologous to Drp1, conjugated to TAT47-57]	–	–	a trend toward inhibition
